Literature values, collected in patent publication US6231888A, “Local delivery of non steroidal anti inflammatory drugs (NSAIDS) to the colon as a treatment for colonic polyps” (Perio Products Ltd., priority 1998, dated 2001).

Experiments:
[1] = tested on: colonic polyps; details: daily dose of 300 mg, taken systemically
[2] = tested on: COX-2
[3] = tested on: colorectal mucosa; details: FAP patients
[4] = tested on: COX-1
[5] = tested on: HT-29 colon adenocarcinoma cell line
[6] = tested on: colonic microflora
[7] = tested on: sporadic colorectal adenomas; details: 300 mg or 150 mg daily for one year; polyps 4-12 mm
[8] = tested on: sporadic colonic polyps
[9] = tested on: colonic biopsies; details: diclofenac-induced colitis
[10] = tested on: SW480 colon carcinoma cells
[11] = tested on: HT-29 colon adenocarcinoma cells; details: HT-29 cells
[12] = tested on: colorectal cancer; details: chronic use

## CC1=C(CC(=O)O)c2cc(F)ccc2/C1=C\c1ccc([S+](C)[O-])cc1 (stereo not shown) [sulindac]
[1]
  Number and size of colonic polyps: significantly decreased
Oral tablet
  Time of peak plasma concentration: about two
[2]
  COX-2 inhibition: weak inhibitor of COX-2
[3]
  Colonic mucosal apoptosis: increased levels of colonic mucosal apoptosis
  Proliferation: No effects on proliferation
[4]
  COX-1 inhibition: mainly exerts an inhibitory effect on COX-1
[5]
  Apoptosis: induction of apoptosis
  Cell proliferation or differentiation: no evidence of cell proliferation or differentiation
[6]
  Reduction product formed by colonic microflora: exclusively to sulindac sulfide
[7]
  Regression/progression of sporadic colorectal adenomas: induced regressions and prevented the progression of sporadic colorectal adenomas
[8]
  Regression of adenomatous polyps: no similar regression of adenomatous polyps

## O=C(O)Cc1ccccc1Nc1c(Cl)cccc1Cl [diclofenac]
[9]
  Apoptotic bodies in colonic biopsies: increased levels of apoptotic bodies

## Cc1cnc(NC(=O)C2=C(O)c3ccccc3S(=O)(=O)N2C)s1 [Meloxicam]
[2]
  COX-2 inhibition: selective COX-2 inhibitor

## CN1C(C(=O)Nc2ccccn2)=C(O)c2ccccc2S1(=O)=O [piroxicam]
[2]
  COX-2 inhibition: strong inhibitory effect on COX-2

## CSc1ccc(/C=C2/C(C)=C(CC(=O)O)c3cc(F)ccc32)cc1 [sulindac sulfide]
In vivo, po
  Time within which plasma concentration exceeds that of sulindac: four
[2]
  COX-2 inhibition: potent inhibitor of COX-2
[10]
  Cell cycle inhibition: induced cell cycle inhibition
[11]
  Potency in reducing proliferation and inhibiting the cell cycle vs sulindac: six times more potent than sulindac

## CC(=O)Oc1ccccc1C(=O)O [aspirin]
[12]
  Reduction in the incidence of colorectal cancer: 50-70%
